Converted amounts (≈) assume the structure as drawn.
Assays:
HEK293 [1] = assay: Antitumor activity against human HEK293 cells in CB17-SCID xenografted mouse model at 150 mg/kg relative to control; assay type: functional
HEK293 [2] = assay: Antitumor activity against human HEK293 cells in CB17-SCID xenografted mouse model at 300 mg/kg relative to control; assay type: functional
Catenin beta-1 [3] = target: T1, Catenin beta-1 (Homo sapiens, UniProt P35222)
T1 sequence (P35222 whole entry): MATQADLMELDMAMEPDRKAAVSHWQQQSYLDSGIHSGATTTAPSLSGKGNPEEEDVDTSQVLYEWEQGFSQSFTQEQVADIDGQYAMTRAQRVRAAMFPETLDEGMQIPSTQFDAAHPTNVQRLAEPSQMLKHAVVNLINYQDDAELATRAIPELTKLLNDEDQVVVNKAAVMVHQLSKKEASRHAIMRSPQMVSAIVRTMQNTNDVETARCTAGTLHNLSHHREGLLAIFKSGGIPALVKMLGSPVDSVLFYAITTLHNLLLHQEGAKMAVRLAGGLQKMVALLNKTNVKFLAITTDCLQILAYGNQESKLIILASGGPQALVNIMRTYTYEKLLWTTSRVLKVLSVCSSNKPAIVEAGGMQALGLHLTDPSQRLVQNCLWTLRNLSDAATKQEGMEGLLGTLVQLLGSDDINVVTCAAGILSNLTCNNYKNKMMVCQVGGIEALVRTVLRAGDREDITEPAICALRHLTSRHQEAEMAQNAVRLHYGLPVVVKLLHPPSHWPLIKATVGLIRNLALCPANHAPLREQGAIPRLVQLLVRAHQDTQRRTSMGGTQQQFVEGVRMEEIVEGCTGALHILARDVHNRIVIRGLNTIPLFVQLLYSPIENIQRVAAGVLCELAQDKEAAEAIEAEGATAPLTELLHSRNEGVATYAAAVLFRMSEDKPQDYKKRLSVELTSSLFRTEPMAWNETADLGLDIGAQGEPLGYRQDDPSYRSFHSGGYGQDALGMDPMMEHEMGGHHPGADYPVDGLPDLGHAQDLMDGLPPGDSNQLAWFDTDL

[4] = Half life in mouse plasma; assay type: ADME, cell-free
[5] = target: T2, Poly [ADP-ribose] polymerase tankyrase-2 (Homo sapiens, UniProt Q9H2K2); assay: Inhibition of TNKS2 (unknown origin)
T2 sequence (Q9H2K2 whole entry): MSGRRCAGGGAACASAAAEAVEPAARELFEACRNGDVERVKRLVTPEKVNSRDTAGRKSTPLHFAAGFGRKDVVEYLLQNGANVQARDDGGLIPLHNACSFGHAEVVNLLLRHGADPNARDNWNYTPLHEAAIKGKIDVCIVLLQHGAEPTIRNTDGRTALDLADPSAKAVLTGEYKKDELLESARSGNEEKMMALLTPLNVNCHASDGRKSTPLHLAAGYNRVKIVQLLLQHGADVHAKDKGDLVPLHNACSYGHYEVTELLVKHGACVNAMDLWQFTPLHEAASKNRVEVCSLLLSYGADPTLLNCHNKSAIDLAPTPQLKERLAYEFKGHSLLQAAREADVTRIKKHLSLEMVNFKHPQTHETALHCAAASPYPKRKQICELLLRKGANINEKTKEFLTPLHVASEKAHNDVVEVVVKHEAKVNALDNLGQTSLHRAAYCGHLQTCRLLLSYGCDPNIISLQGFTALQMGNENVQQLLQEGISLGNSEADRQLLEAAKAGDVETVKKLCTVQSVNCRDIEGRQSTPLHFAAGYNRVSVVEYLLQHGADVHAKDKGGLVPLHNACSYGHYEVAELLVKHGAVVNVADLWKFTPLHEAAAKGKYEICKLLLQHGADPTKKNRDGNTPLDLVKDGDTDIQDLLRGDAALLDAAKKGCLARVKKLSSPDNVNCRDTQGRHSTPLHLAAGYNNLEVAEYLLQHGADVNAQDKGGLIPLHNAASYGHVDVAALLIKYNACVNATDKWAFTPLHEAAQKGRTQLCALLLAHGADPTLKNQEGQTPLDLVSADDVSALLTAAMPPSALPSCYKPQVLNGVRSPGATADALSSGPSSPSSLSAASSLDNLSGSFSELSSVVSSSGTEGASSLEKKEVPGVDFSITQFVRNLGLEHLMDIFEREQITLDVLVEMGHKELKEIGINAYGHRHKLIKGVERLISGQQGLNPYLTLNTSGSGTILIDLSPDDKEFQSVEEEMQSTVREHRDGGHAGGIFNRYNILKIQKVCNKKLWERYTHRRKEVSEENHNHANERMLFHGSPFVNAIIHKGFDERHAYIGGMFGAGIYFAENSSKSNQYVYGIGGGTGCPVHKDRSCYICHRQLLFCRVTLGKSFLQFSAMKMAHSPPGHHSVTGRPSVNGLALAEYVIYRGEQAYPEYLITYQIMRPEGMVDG

DLD-1 = assay: Antiproliferative activity against human DLD-1 cells assessed as reduction in cell viability by cell proliferation assay; assay type: functional, cell-based
[6] = Clearance in human liver microsomes; assay type: ADME, Microsome; details: read-out: CLH
[7] = Clearance in mouse liver microsomes; assay type: ADME, Microsome; details: read-out: CLH
MCF7 = assay: Antiproliferative activity against human MCF7 cells by MTT assay; assay type: functional, cell-based
[8] = target: T3, Poly [ADP-ribose] polymerase tankyrase-1 (Homo sapiens, UniProt O95271); assay: Inhibition of human TNKS1 (1030 to 1317 residues) measured after 20 hrs
T3 sequence (O95271 whole entry): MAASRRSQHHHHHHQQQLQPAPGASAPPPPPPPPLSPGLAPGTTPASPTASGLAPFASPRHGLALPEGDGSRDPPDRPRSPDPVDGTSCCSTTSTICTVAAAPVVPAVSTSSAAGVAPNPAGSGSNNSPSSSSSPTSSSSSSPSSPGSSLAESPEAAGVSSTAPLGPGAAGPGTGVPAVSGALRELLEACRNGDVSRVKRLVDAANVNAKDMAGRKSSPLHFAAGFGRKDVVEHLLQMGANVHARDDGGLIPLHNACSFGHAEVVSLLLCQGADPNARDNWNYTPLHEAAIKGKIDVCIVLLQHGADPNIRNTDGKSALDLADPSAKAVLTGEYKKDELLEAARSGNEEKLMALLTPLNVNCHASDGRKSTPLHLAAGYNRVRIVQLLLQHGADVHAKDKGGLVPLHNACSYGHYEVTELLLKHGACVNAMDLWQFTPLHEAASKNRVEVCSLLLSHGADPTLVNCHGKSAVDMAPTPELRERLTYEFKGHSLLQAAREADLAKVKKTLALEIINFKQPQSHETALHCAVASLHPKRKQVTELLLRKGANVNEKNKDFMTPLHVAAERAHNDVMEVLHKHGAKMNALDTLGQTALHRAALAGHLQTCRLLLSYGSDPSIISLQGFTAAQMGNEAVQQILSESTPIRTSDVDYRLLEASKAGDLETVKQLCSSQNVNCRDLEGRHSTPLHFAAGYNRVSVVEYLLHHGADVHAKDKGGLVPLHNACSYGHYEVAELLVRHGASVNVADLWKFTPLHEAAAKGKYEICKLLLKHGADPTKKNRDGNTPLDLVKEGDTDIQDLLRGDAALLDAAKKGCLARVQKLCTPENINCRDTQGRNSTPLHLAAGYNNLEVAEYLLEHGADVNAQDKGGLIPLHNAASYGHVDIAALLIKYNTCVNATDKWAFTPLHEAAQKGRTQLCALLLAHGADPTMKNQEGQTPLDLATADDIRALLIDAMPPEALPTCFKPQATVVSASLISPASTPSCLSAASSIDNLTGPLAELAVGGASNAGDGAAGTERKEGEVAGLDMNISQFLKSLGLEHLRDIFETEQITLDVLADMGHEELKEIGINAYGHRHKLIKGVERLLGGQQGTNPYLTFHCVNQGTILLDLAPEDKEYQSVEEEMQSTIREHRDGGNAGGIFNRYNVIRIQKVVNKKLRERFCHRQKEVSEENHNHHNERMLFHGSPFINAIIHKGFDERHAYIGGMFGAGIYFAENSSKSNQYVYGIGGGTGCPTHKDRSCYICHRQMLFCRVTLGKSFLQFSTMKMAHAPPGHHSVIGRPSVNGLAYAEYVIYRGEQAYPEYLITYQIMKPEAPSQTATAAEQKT

[9] = target: T2, Poly [ADP-ribose] polymerase tankyrase-2; assay: Inhibition of human TNKS2 (873 to 1162 residues) measured after 15 hrs in presence of NAD+ by fluorescence assay
[10] = target: Poly [ADP-ribose] polymerase 1 (Homo sapiens, UniProt P09874); assay: Inhibition of human recombinant PARP1 incubated for 30 mins in the presence of NAD
Chain of Poly [ADP-ribose] polymerase 1 (P09874 whole entry): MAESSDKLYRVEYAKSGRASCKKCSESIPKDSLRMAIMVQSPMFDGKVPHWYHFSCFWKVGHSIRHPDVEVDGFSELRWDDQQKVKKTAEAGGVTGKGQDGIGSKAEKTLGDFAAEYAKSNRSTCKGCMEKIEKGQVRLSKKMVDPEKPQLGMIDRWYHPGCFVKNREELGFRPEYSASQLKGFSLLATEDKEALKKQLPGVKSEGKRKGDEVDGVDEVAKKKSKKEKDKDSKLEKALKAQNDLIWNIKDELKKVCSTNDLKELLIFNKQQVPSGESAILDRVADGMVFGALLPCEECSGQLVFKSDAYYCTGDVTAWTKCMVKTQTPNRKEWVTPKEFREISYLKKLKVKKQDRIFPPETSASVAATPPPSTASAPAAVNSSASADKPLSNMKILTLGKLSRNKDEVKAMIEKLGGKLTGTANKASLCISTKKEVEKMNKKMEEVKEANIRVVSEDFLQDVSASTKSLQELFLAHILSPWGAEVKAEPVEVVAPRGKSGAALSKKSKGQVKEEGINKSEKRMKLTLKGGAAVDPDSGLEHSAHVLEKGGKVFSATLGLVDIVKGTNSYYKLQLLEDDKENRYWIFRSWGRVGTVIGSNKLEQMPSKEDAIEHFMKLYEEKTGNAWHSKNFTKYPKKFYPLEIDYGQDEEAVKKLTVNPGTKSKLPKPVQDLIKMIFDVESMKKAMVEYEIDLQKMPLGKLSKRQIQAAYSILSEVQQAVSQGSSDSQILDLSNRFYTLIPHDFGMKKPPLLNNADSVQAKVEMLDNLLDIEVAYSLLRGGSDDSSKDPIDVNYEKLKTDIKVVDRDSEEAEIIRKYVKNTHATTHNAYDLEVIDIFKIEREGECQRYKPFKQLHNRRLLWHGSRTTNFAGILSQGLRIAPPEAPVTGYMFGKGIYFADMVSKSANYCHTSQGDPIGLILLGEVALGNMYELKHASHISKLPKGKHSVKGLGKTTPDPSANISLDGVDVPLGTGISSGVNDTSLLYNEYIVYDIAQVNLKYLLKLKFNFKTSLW

[11] = target: Poly [ADP-ribose] polymerase 2 (Homo sapiens, UniProt Q9UGN5); assay: Inhibition of PARP2 (unknown origin) using NAD as substrate incubated for 1 min
Chain of Poly [ADP-ribose] polymerase 2 (Q9UGN5 whole entry): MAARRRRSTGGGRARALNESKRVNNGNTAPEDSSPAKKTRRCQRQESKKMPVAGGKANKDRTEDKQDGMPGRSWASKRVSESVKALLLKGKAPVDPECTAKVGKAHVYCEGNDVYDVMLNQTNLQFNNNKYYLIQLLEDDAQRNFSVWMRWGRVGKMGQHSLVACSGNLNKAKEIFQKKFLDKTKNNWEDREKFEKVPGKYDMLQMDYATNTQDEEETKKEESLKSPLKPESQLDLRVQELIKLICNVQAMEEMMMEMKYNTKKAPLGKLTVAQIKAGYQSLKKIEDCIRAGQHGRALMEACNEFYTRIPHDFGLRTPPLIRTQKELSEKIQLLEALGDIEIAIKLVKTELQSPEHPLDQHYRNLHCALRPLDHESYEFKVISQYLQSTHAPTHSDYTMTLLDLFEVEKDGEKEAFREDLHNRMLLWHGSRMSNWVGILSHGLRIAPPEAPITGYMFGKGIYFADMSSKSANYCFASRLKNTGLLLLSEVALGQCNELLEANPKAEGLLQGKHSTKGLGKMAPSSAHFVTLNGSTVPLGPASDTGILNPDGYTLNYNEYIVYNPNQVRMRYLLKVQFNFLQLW

[12] = Efflux ratio of apparent permeability in human Caco-2 cells; assay type: ADME, cell-based
[13] = Oral bioavailability in rat at 30 mg/kg; assay type: ADME, organism-based; details: in vivo
COLO 320 [14] = assay: Antitumor activity against human COLO 320 cells xenografted mouse model assessed as tumor growth inhibition at 300 mg/kg relative to control; assay type: functional; details: read-out: TGI
COLO 320 [15] = assay: Antiproliferative activity against human COLO 320 assessed as growth inhibition measured after 24 hrs; assay type: functional
[16] = Solubility of compound at pH 7.4; assay type: physicochemical; details: buffer
[17] = target: Catenin beta-1/Transcription factor 7 (Homo sapiens, UniProt P35222+P36402); assay: Inhibition of beta catenin/TCF (unknown origin) by immunoprecipitation method; assay type: protein assay
Chain of Catenin beta-1/Transcription factor 7 (P36402 whole entry, one chain of several): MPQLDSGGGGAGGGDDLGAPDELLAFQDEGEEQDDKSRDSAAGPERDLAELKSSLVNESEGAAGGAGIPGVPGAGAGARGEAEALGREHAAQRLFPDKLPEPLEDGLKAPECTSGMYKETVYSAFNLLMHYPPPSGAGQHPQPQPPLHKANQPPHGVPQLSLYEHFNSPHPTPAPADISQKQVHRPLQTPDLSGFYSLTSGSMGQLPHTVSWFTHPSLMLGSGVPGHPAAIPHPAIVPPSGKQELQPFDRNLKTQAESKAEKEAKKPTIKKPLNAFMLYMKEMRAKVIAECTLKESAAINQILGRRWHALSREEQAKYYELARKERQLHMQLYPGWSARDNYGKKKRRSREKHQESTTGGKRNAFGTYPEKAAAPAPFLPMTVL

LNCaP C4-2B = assay: Antiproliferative activity against human LNCaP C4-2B cells assessed as inhibition of cell growth by Celltiter-Glo assay; assay type: functional, cell-based
[18] = Oral bioavailability in rat at 5 mg/kg; assay type: ADME, organism-based; details: in vivo
Catenin beta-1 [19] = target: T1, Catenin beta-1; assay: Binding affinity to human beta catenin assessed as dissociation constant
[20] = Inhibition of beta catenin/APC (unknown origin); parameters: species or system Homo sapiens
[21] = Inhibition of Wnt2 signalling in human SW480 cells assessed as reduction in cyclin D1 expression […] measured after 24 hrs by western blot analysis; assay type: cell-based; details: SW480, 24 h
Catenin beta-1 [22] = target: T1, Catenin beta-1; assay: Binding affinity to beta catenin (unknown origin) assessed as dissociation constant by VP-ITC method
Catenin beta-1 [23] = target: Catenin beta-1 (Homo sapiens, UniProt P35222); assay: Binding affinity to human beta catenin double mutant assessed as dissociation constant by alpha assay

COc1ccc(-n2c(SCc3nc(-c4ccc(C)cc4)no3)nnc2-c2ccncc2)cc1
Activity (HEK293 [1]): 33%
Activity (HEK293 [2]): 35%

On1ncc2cc(CCc3nn[nH]n3)ccc21
IC50 (Catenin beta-1 [3]): 500 nM

CC1(C)OC(=O)N(c2ccc(C(=O)Nc3cccc4cccnc34)cc2)[C@H]1c1ccccc1
half-life [4]: 5.2 h

CC1(C)OC(=O)N([C@H]2CC[C@H](c3cnc(N)c(-c4ncccn4)c3)CC2)[C@H]1c1ccccc1
IC50 [5]: 22 nM
IC50 (DLD-1): 3000 nM

CC1(C)OC(=O)N(c2ccc(-c3cnc(N)c(-c4ncccn4)c3)cc2)[C@H]1c1ccccc1
microsomal CLint [6]: 33 µL/min/mg
microsomal CLint [7]: 48 µL/min/mg

Cc1cccc2c(=O)[nH]c3c(c12)COC(C(C)(C)CO)C3 (stereo unspecified)
EC50 (MCF7): 7 nM

COc1cccc2c(=O)[nH]c(-c3ccc(C)cc3)cc12
IC50 [8]: 30 nM
IC50 [9]: 5.1 nM
IC50 [10]: > 10000 nM
IC50 [11]: > 10000 nM

Cc1cc(N2C[C@@H](C)N[C@@H](C)C2)ncc1-c1ccc(-c2nc3c(ccn3C)c(=O)[nH]2)cc1
efflux ratio [12]: 2.7

O=c1[nH]c(N2CCC3(CC2)CN(CCO)c2cc(F)cc(F)c23)nc2c1CCCC2
bioavailability [13]: 60%
inhibition in vivo at 300 mg/kg (COLO 320 [14]): 52%

C[C@@H]1CN(c2cc(F)c3c(c2)N(C)C(=O)C32CCN(c3nc4c(c(=O)[nH]3)CCCN4C)CC2)C[C@H](C)O1
GI50 (COLO 320 [15]): 230 nM

COc1ccccc1N1CCN(c2nc3c(c(=O)[nH]2)CCCC3)CC1
solubility [16]: 72 µg/mL (≈ 211 µM)

COc1ccc([C@@H](C)N2CC(=O)N[C@H](C)C(=O)CN(CCc3ccccc3Oc3ccccc3)CC(=O)N(c3cc(OC)cc(OC)c3)CC(=O)N(CCCOC(C)C)CC(=O)N([C@H](C)c3ccc(OC)cc3)CC2=O)cc1
IC50 [17]: 10000 nM
IC50 (LNCaP C4-2B): 195 nM

COCCNc1cc(C)c(-c2ccc(-c3nc4c(CO)cccc4c(=O)[nH]3)cc2)cn1
bioavailability [18]: 18%

CC(=O)N[C@@H](CCC(=O)O)CN(CC(=O)N[C@@H](CCCNC(=N)N)CN(CC(=O)N[C@@H](CCCNC(=N)N)CN(CC(=O)NC(CC(C)C)CN(CC(=O)N[C@H](CN(CC(=O)N[C@@H](CC(C)C)CN(CC(=O)N[C@@H](CCCNC(=N)N)CN(CC(=O)N[C@@H](C)CN(CC(=O)N[C@@H](CC(C)C)CN(CC(=O)N[C@@H](CC(C)C)CN(CC(N)=O)SCc1ccccc1)S(=O)(=O)CC(C)C)S(C)(=O)=O)S(=O)(=O)CC(C)C)S(=O)(=O)CCN)S(=O)(=O)CC(C)C)C(C)O)S(=O)(=O)CCN)S(C)(=O)=O)S(C)(=O)=O)S(=O)(=O)CCN (stereo partly specified)
Kd (Catenin beta-1 [19]): 160 nM

CCOC(=O)CC[C@H](NC(=O)[C@H](CC(=O)OCC)NC(=O)[C@H](Cc1ccc2ccccc2c1)NC(=O)Cc1cc2cc(Cl)ccc2[nH]1)C(=O)OC
IC50 [20]: 28700 nM
IC50 [21]: 10800 nM

CC[C@H](C)[C@H]1NC(=O)[C@](C)(NC(=O)[C@H](CCC(N)=O)NC(=O)[C@@H]2CCCN2C(=O)[C@H](CC(N)=O)NC(=O)[C@H](CCC(=O)O)NC(=O)CCNC(=S)Nc2ccc3c(c2)C(=O)OC32c3ccc(O)cc3Oc3cc(O)ccc32)CCC/C=C/CCC[C@](C)(C(=O)N[C@@H](Cc2cnc[nH]2)C(=O)N[C@H](C(=O)N[C@@H](CCC(N)=O)C(=O)N[C@@H](CCCNC(=N)N)C(=O)N[C@H](C(=O)N[C@@H](CCSC)C(N)=O)C(C)C)C(C)C)NC(=O)[C@H](CC(=O)O)NC(=O)[C@H](C(C)(C)C)NC1=O
Kd (Catenin beta-1 [22]): 60 nM

O=C(Nc1ccc(-c2ccc(F)cc2)c(O[C@H]2CCNC2)c1)c1ccc(O[C@H]2CCNC2)c(-c2ccc(F)c(F)c2)c1
Kd (Catenin beta-1 [23]): 97 nM

Reference: ChEMBL document CHEMBL5226302, “Small-Molecule Inhibitors Targeting the Canonical WNT Signaling Pathway for the Treatment of Cancer” (J Med Chem, 2021)
